# Data published in patent US11033535B2, “Oxadiazoles and thiadiazoles as TGF-β inhibitors” (Southern Research Institute, priority 2017, dated 2021).
# Key:
# [1] = test system: BLM induced lung fibrosis; test: BLM induced unilateral lung fibrosis model; format: in vivo, SD rats; conditions: 10 mg/kg/d ip (n = 6), day 77
# [2] = test system: BLM induced lung fibrosis; test: BLM induced unilateral lung fibrosis model; format: in vivo, SD rats; parameters: left lung bronchial and arteriole damages (score), In the fibrosis core (n = 6) / left lung bronchial and arteriole damages (score), In the border of fibrosis (n = 6): scale not given here; conditions: for body weight, Changes in the ratio (%) / body weight: 10 mg/kg/d ip (n = 6); for body weight: in g (unit assumed)
# Procedure: Species and quality level: SD rats, SPF grade; Gender and number: male, 12; Purchasing body weight range: 260-280 g; Company Certificate No.: SCXX (zhe) 2018-0001, Zhejiang Vital River Laboratory Animal Technology Co., Ltd.
# Model Establishment: This study was carried out in strict accordance with the SOP institutional guidelines for the care and use of laboratory animals. Rats were anesthetized by intraperitoneal injection of pentobarbital sodium at dose of 50 mg/kg. Then rat neck skin was disinfected and opened in layers. The trachea was exposed carefully. Bleomycin (BLM) was directly injected into left main bronchus at a dose of 3 mg/kg body weight in volume of 1.0 ml/kg via a cannula. After closing the trachea and skin in layers the animal was moved on an electric heat pad at 37° C. to wait waking up from anesthesia before returning to holding cages with free access to water and diet.
# Rats were assigned into two groups: Model (Group-1, n=6), CPD-X (Group-2, 10 mg/kg/d, n=6) (Table 13).
# a Test article, CPD-X was designed as an intraperitoneal injection once a day starting from day-8 of modeling for 14 days (Table 13). The saline as a vehicle for model group via a ip injection once a day for 14 days.
# One day after the last dosing all animals were euthanized according to the standard SOP at KCl. After confirming the animal death the left lung BALF was collected according the standard SOP at KCl. The BALF was frozen in liquid nitrogen and stored at −80° C. The left lungs then were perfused with equal volume of 10% formaldehyde solution (3 mL for each lung).
# Lung pathology was processed after lung fixation. All animal hearts were collected at same time, weighted, and fixed in 10% formaldehyde solution for histology examination.
# The whole left lung was dehydrated and wax embedded following KCl pathology SOP, then sectioned at […] in thickness. HE and Masson Trichrome staining were processed following KCl pathology standard staining SOPs, whole slides were then scanned by Hamamatsu NanoZoomer Digital Pathology S210 slide scanner after staining. Bronchiole and pulmonary arteriole damage and inflammatory cell infiltration in fibrosis core and fibrotic board area were scored with H&E stained slides (Table 14 and Table 15, FIG. 8), for which 5 different areas were selected in each lung slide. BLM induced left lung injury area and Ashcraft scoring for fibrosis were evaluated with Masson Trichrome stained slides (Table 16 and FIG. 9), for which 10 different areas were selected in each lung slide.
# The animal hearts were dehydrated and wax embedded following KCl pathology SOP, then sectioned at […] in thickness. HE staining was processed following KCl pathology standard staining SOPs, whole slides were then scanned by Hamamatsu NanoZoomer Digital Pathology S210 slide scanner after staining. The thickness of left ventricle wall (LV), septum and right ventricle wall (RV) were measured at five different points and calculated the average thickness of LV, septum and RV.
# a Statistical analysis was performed using Graphpad prism 6.0 software. Descriptive results were expressed as mean±sem or mean±sd. Statistical comparisons were performed using t-test, two-way ANOVA analysis. The p value <0.05 was considered as statistically significant.
# [3] = 10 mg/kg ip QD 14 days from day-8, p < 0.05 vs. model
smiles,measurement,setting,value
CC(=O)NC(Cc1ccc(CN)cc1)c1nnc(-c2cccc(OC(F)(F)F)c2)s1 (stereo not drawn) [CPD-X],"body weight, Changes in the ratio (%)",[1],19.4 ± 5.4%
same,body weight,[1]; in g (unit assumed),341.6 ± 18.8
same,body weight recovery vs. model group,[2],significant difference in body recovery
same,fibrosis by Ashcraft scoring,[2],significant reduction in fibrosis
same,share of fibrosis score ≤3,[2],about 80%
same,"left lung bronchial and arteriole damages (score), In the fibrosis core (n = 6)","[2]; 10 mg/kg ip QD 14 days from day-8, H&E, p < 0.001 vs. model",6.23 ± 0.67
same,"left lung bronchial and arteriole damages (score), In the border of fibrosis (n = 6)","[2]; 10 mg/kg ip QD 14 days from day-8, H&E, p < 0.01 vs. model",4.8 ± 0.54
same,Lang damage area (%),"[2]; 10 mg/kg ip QD 14 days from day-8, Masson Trichrome, left lung",70.69 ± 10.66%
same,Ashcraft fibrosis score,"[2]; 10 mg/kg ip QD 14 days from day-8, Masson Trichrome, p < 0.01 vs. model",2.55 ± 0.29
same,% of fibrosis score (≤3),[2]; [3],90 ± 10.95 %
same,% of fibrosis score (≥4),[2]; [3],10 ± 10.95 %
same,"body weight, Changes in the ratio (%)",[2]; day 0,0%
same,body weight,[2]; day 0,286.0 ± 6.1
same,"body weight, Changes in the ratio (%)",[2]; day 2,−9.6 ± 3.6%
same,body weight,[2]; day 2,258.7 ± 13.4
same,"body weight, Changes in the ratio (%)",[2]; day 5,−8.3 ± 6.7%
same,body weight,[2]; day 5,262.4 ± 22.6
same,"body weight, Changes in the ratio (%)",[2]; day 7,−4.4 ± 7.6%
same,body weight,[2]; day 7,273.6 ± 24.9
same,"body weight, Changes in the ratio (%)",[2]; day 9,−0.8 ± 7.5%
same,body weight,[2]; day 9,283.9 ± 24.5
same,"body weight, Changes in the ratio (%)",[2]; day 11,2.8 ± 7.0%
same,body weight,[2]; day 11,294.1 ± 23.5
same,"body weight, Changes in the ratio (%)",[2]; day 13,5.5 ± 6.4%
same,body weight,[2]; day 13,302.0 ± 22.0
same,"body weight, Changes in the ratio (%)",[2]; day 15,8.2 ± 6.1%
same,body weight,[2]; day 15,309.0 ± 20.4
same,"body weight, Changes in the ratio (%)",[2]; day 17,13.7 ± 6.4%
same,body weight,[2]; day 17,325.3 ± 21.2
same,"body weight, Changes in the ratio (%)",[2]; day 19,14.4 ± 5.9%
same,body weight,[2]; day 19,327.3 ± 20.7
same,"body weight, Changes in the ratio (%)",[2]; day 21,18.4 ± 5.3%
same,body weight,[2]; day 21,338.9 ± 19.4
same,therapeutic effect (summary),[2]; ip from day-8 of modeling for 14 days,significant improvement in bronchial and arteriole damage and alveolar fibrosis
same,right ventricle wall thickness,[2]; no statistic difference as compared to model group,slightly limited the right ventricle wall thickness
same,bronchial and arteriole damages in fibrotic core and border of fibrosis,[2]; p<0.001,significant therapeutic effect on reduction of bronchial and arteriole damages
